Experimental data reported in the NIST ThermoML archive (doi:10.1021/je800159w).

How the values were obtained:
[1] = refractive index (Na D-line) (dimensionless); settings: 101.33 kPa, Liquid, Standard Abbe refractometry
[2] = 101.33 kPa, Liquid
[3] = refractive index (Na D-line) (dimensionless); xn = mol fraction of the nth substance listed; settings: 298.15 K, 101 kPa, Liquid, Standard Abbe refractometry
[4] = xn = mol fraction of the nth substance listed; settings: 101 kPa, Liquid

CCOS(=O)(=O)[O-].CC[n+]1cccc(C)c1 [1-ethyl-3-methylpyridinium ethylsulfate]
Settings	mass density, [2] [kg/m3]	refractive index, [1]	viscosity, [2] [mPa·s]
298.15 K	1222.26	1.50666	161.4
303.15 K	1219.02	1.50525	123.6
308.15 K	1215.78	1.50386	96.9
313.15 K	1212.54	1.50246	77.1
318.15 K	1209.39	1.50106	62.2
323.15 K	1206.13	1.49965	50.55
328.15 K	1202.86	1.49825	42.32
333.15 K	1199.63	1.49683	35.52
338.15 K	1196.43	1.4954	30.11
343.15 K	1193.25	1.49361	25.69

CCOS(=O)(=O)[O-].CC[n+]1cccc(C)c1 [1-ethyl-3-methylpyridinium ethylsulfate] + O
[3]
Settings	refractive index
x2 = 0.0526	1.50583
x2 = 0.1412	1.50427
x2 = 0.2445	1.50193
x2 = 0.3233	1.49986
x2 = 0.4174	1.49685
x2 = 0.4972	1.49329
x2 = 0.588	1.48806
x2 = 0.6975	1.47838
x2 = 0.7928	1.46398
x2 = 0.9005	1.42959
x2 = 0.9484	1.39796

[4]
Settings	mass density, 298.15 K [kg/m3]	mass density, 313.15 K [kg/m3]	mass density, 328.15 K [kg/m3]	viscosity, 298.15 K [mPa·s]	viscosity, 313.15 K [mPa·s]	viscosity, 328.15 K [mPa·s]
x2 = 0.0526	1221.69	1211.82	1202.02	127.6	60.5	34.93
x2 = 0.1412	1220.12	1210.22	1200.35	102.1	50.28	29.83
x2 = 0.2445	1217.8	1207.83	1198.02	77.9	39.91	23.49
x2 = 0.3233	1215.58	1205.62	1195.72	62.3	32.92	19.76
x2 = 0.4174	1212.21	1202.21	1192.23	46.87	24.86	15.51
x2 = 0.4972	1208.39	1198.31	1188.24	36.11	20.36	12.78
x2 = 0.588	1202.53	1192.32	1182.14	26.83	15.52	9.894
x2 = 0.6975	1191.35	1180.92	1170.42	17.72	10.5	6.847
x2 = 0.7928	1174.05	1163.41	1152.61	11.18	6.778	4.508
x2 = 0.9005	1129.44	1119.24	1108.66	4.927	3.161	2.197
x2 = 0.9484	1086.2	1077.5	1068	2.717	1.818	1.315
